Tests used:
[1] = biological target: T1, matrix metalloproteinase-2 (Homo sapiens, UniProt P08253); test: Extracellular inhibition test on enzyme activity of secreted MMP-2 in cultured medium; type: biochemical; conditions: cultured medium of PMA induced HT 1080, different concentrations, 24 hours
T1 construct: matrix metalloproteinase-2 and matrix metalloproteinase-9 were secreted from the PMA induced HT 1080; endogenous in cells; host or cells: HT 1080 cells induced with 100 nM PMA
T1 sequence (P08253 110-660): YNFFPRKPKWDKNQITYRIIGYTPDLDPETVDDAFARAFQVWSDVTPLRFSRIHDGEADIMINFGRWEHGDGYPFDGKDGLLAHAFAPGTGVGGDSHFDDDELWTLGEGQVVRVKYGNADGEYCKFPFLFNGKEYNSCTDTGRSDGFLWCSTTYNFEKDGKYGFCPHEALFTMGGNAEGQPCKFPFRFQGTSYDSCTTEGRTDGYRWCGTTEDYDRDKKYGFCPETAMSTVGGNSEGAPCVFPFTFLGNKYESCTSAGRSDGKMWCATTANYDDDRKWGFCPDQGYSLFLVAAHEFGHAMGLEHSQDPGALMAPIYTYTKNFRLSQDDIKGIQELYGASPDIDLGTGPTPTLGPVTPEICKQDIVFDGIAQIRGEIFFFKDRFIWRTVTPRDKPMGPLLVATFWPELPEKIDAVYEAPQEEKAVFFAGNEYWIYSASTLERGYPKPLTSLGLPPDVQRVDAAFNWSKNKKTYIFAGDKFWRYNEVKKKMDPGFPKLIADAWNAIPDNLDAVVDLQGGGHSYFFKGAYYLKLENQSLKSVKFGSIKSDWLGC
Procedure: (§1) HT 1080 cells with appropriate cell numbers were cultured in 60 mm culturing plates for 12 hours, respectively. After the cells were attached onto the bottom of the plate and formed a monolayer, the medium in the plate was removed. Fresh serum free mediums with different concentrations of a test sample were added to the plates, respectively, and 100 nM PMA was added to each plate to induce the cells to express great quantities of matrix metalloproteinase-2 and matrix metalloproteinase-9, and the plates were placed in a temperature of 37° C. for 24 hours. After centrifugation, each cultured supernatant were saved and mixed with SDS-sample buffer under the same protein contents which were then injected into a 10% SDS-polyacrylamide gel (containing 1 mg/ml gelatin) and then electrophoresed. After the electrophoresis was completed, the gel was taken out and washed with 20 mM Tris-HCl containing 25% isopropanol three times; 10 minutes per time. […]
(§2) HT 1080 cells were induced with PMA, and the cultured medium for culturing the HT 1080 cells therefrom was taken out and treated with the different concentrations of L-Glutamic acid γ-hydroxamate (DH) for 24 hours, respectively. After that the enzyme activities of the matrix metalloproteinase-2 and matrix metalloproteinase-9 in the medium were analyzed. […]

[2] = test system: matrix metalloproteinase-9; test: Gelatin gel zymography of PMA-induced HT 1080 cells, MMP-9 activity; type: cell-based, Human
Procedure: 4. Gelatin Gel Zymography (Shim et al., 2003; Park et al., 2005; Hwang et al., 2006)
HT 1080 cells with appropriate cell numbers were cultured in 60 mm culturing plates for 12 hours, respectively. After the cells were attached onto the bottom of the plate and formed a monolayer, the medium in the plate was removed. Fresh serum free mediums with different concentrations of a test sample were added to the plates, respectively, and 100 nM PMA was added to each plate to induce the cells to express great quantities of matrix metalloproteinase-2 and matrix metalloproteinase-9, and the plates were placed in a temperature of 37° C. for 24 hours. After centrifugation, each cultured supernatant were saved and mixed with SDS-sample buffer under the same protein contents which were then injected into a 10% SDS-polyacrylamide gel (containing 1 mg/ml gelatin) and then electrophoresed. After the electrophoresis was completed, the gel was taken out and washed with 20 mM Tris-HCl containing 25% isopropanol three times; 10 minutes per time. Then the gel was equilibrated with 20 mM Tris-HCl for 30 minutes, and finally an incubate buffer (5 mM CaCl2 and 1 mM ZnCl2) was added to the gel and reacted with the gel overnight. Then the gel was stained with coomassie blue, and positions having matrix metalloproteinase activity of the gel presented a white color.

HT 1080 cells = test: Cell adhesion assay (gelatin-coated plate); type: cell-based, Human
Procedure: 11. Cell Adhesion Assay (Lee et al., 2005; Ouyang et al., 2005; Zhang et al., 2005)
HT 1080 cells were used to prepare a cell suspension with an appropriate concentration by a fresh serum free medium, and the cell suspension was mixed with test drugs with different concentrations, respectively and then added to wells of a 24 well culturing plate pre-coated with gelatin, respectively. The 24 well culturing plates were placed in an incubator at 37° C. for 30 minutes. After that, the upper medium in each well was removed and the cells were washed with a PBS buffer twice, and then an MTT solution which was prepared with a medium was added to each well. After the 24 well culturing plates were placed in an incubator at 37° C. for reacting for 4-6 hours, an upper medium in each well was removed, and 100 μl of DMSO was added to each well to solubilize the formazan precipitates. After that, an ELISA reader was used to determine the absorbance at 600 nm for each well. The calculation for the adhesion rate of the cells was: […]

[3] = test system: matrix metalloproteinase-9; test: RT-PCR, MMP-9 gene expression in HT 1080 cells; type: cell-based, Human
Procedure: 7. RNA Extraction and Reverse Transcription-Polymerase Chain Reaction (RT-PCR)
HT 1080 cells with appropriate cell numbers were cultured in 60 mm culturing plates for 6 hours, respectively. After the cells were attached onto the bottom of the plate and formed a monolayer, the medium in the plate was removed. Fresh serum free mediums with different concentrations of a test sample were added to the plates, respectively, and 100 nM PMA was added to each plate to induce the cells to express great quantities of matrix metalloproteinase-2 and matrix metalloproteinase-9, and the plates were placed in a temperature of 37° C. for 6 hours. After that, the total RNA of the cells were extracted with the TRIzol reagent and reverse transcripted by a reverse transcriptase to synthesize cDNA. The synthesize cDNA was used as a template to perform GADPH, matrix metalloproteinase-2 and matrix metalloproteinase-9 PCR amplifications.

[4] = biological target: T2, matrix metalloproteinase-9 (Homo sapiens, UniProt P14780); test: Extracellular inhibition test on enzyme activity of secreted MMP-9 in cultured medium; type: biochemical; conditions: cultured medium of PMA induced HT 1080, different concentrations, 24 hours
T2 construct: matrix metalloproteinase-2 and matrix metalloproteinase-9 were secreted from the PMA induced HT 1080; endogenous in cells; host or cells: HT 1080 cells induced with 100 nM PMA
T2 sequence (P14780 94-707): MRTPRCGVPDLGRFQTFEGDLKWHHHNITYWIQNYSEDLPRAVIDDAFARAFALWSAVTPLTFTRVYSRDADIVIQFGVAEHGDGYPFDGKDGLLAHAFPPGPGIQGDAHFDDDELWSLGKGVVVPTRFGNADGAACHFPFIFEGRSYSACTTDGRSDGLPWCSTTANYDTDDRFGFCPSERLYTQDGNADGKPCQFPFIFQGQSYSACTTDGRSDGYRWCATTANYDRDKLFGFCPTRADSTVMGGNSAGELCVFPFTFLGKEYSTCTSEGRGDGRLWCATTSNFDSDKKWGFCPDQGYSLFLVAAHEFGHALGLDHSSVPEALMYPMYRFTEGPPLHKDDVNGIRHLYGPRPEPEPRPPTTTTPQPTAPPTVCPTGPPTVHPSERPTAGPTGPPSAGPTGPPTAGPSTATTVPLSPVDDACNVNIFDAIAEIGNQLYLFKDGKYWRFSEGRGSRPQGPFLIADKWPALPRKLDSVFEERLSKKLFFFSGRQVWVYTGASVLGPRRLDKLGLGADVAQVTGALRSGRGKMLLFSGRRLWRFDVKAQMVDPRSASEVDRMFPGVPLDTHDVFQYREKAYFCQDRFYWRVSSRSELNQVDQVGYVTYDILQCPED
Procedure: as §1, §2

[5] = about 0.1-2 mM, stated as embodiment, 'and/or' MMP-2

For `NC(CCC(=O)NO)C(=O)O` [DH, L-Glutamic acid γ-hydroxamate], the “direct inhibition of enzyme activity of secreted matrix metalloproteinase-2” value [1] was “no inhibition”, the “protein activity of matrix metalloproteinase-9 secreted out of and left in HT 1080 cells” value ([2]; 0.4, 0.8, 1.2, and 1.6, 24 hours) was “also decreased” and the “inhibition rate to the activity of matrix metalloproteinase-9” value ([2]; HT 1080 cells treated 24 hours) was “greater than 50%”. The “matrix metalloproteinase-9 inhibiting activity” value ([2]; HT 1080 cells, 0.4, 0.8, 1.2 and 1.6 mM, 24 hours) was “increased while the concentration thereof was increased”, the “inhibition rate to the protein activity of matrix metalloproteinase-9 of a cancer cell” value [2, 5] was 40-70% and the “number of HT 1080 cells attached (adhesion)” value (HT 1080 cells; 0.4, 1.2, 2 and 2.8 mM, gelatin coated plate, 30 minutes) was “slight dose dependent decreasing trend”. For the same compound, the “inhibition rate to cancer cell adhesion” value (HT 1080 cells; about 0.1-3 mM, stated as embodiment) was 10-30%, the “gene expression (mRNA) of matrix metalloproteinase-9” value ([3]; HT 1080 cells, 0.4, 0.8, 1.2, and 1.6, 6 hours, RT-PCR) was “decreased” and the “inhibition rate to the gene transcriptional expression of matrix metalloproteinase-9 of a cancer cell” value [3, 5] was 20-80%. The “direct inhibition of enzyme activity of secreted matrix metalloproteinase-9” value [4] was “no inhibition”.

From patent US20120101163A1, “COMPOSITION FOR INHIBITING CANCER METASTASIS” (TAIPEI MEDICAL UNIVERSITY, priority 2010, published 2012)
